Experimental data from ChEMBL document CHEMBL1137084, “Synthesis of a 5-methylindolyl-containing macrocycle that displays ultrapotent Grb2 SH2 domain-binding affinity” (J Med Chem, 2004).

Key:
[1] = molecular target: T1, Growth factor receptor-bound protein 2 (Homo sapiens, UniProt P62993); experiment: In vitro binding affinity in whole cells for Grb2 SH2 domain; format: cell-based
[2] = molecular target: T1, Growth factor receptor-bound protein 2; experiment: In vitro binding affinity in extracellular ELISA-based assay for Grb2 SH2 domain
[3] = molecular target: T1, Growth factor receptor-bound protein 2; experiment: In vitro binding affinity for Grb2 SH2 domain
[4] = molecular target: T1, Growth factor receptor-bound protein 2; experiment: Inhibition of Grb2 SH2 domain binding to erbB-2
[5] = test system: MDA-MB-453; experiment: Inhibition of growth-factor-stimulated MDA-MB-453 breast cancer cell proliferation; format: functional, cell-based; settings: Homo sapiens

T1 sequence (P62993 whole entry, the tested form may be a part): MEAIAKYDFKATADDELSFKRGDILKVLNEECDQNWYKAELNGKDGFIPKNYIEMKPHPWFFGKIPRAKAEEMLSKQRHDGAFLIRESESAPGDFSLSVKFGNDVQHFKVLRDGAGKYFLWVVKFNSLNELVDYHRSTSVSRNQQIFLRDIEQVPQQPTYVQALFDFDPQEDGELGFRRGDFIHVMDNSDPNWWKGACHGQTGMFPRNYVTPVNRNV

| Compound | IC50 [1] [nM] | IC50 [2] [nM] | Kd [3] [nM] | IC50 [4] [nM] | IC50 [5] [nM] |
| --- | --- | --- | --- | --- | --- |
| NC(=O)C[C@@H]1NC(=O)C2(CCCCC2)NC(=O)C[C@@H](c2ccc(CP(=O)(O)O)cc2)/C=C/C[C@@H](Cc2cccc3ccccc23)CNC1=O | ≥ 10000 |  |  |  |  |
| NC(=O)C[C@@H]1NC(=O)C2(CCCCC2)NC(=O)[C@@H](CC(=O)O)[C@@H](c2ccc(CP(=O)(O)O)cc2)/C=C/C[C@@H](Cc2cccc3ccccc23)CNC1=O | ≤ 1000 | 2 |  |  |  |
| Cc1ccc2c(ccn2C[C@@H]2C/C=C/[C@H](c3ccc(CP(=O)(O)O)cc3)[C@H](CC(=O)O)C(=O)NC3(CCCCC3)C(=O)N[C@@H](CC(N)=O)C(=O)NC2)c1 [listing 1 of 2 here] |  |  | 0.093 | ≤ 10 | 600 |
| Cc1ccc2c(ccn2C[C@@H]2C/C=C/[C@H](c3ccc(CP(=O)(O)O)cc3)[C@H](CC(=O)O)C(=O)NC3(CCCCC3)C(=O)N[C@@H](CC(N)=O)C(=O)NC2)c1 [listing 2 of 2 here] |  |  | 0.075 |  |  |
